System: VRBMP-1 binding to ACE2 on NOK cells
Format: cell-based, human

diminazene aceturate [DIZE]
Binding of VRBMP-1 to NOK cells after DIZE treatment: significantly reduced binding of VRBMP-1 at all three concentrations in a dose-dependent manner
Reduction of VRBMP-1 binding, decoy peptides and DIZE each alone: significantly reduced the binding of VRBMP-1 with nearly the same potency
